For data set [1], the system named is MDA-MB-231. In words: cells. Further details: species or system T47D, MRC-5; MTT cell viability, growth inhibition versus DMSO control, n = 4. To be noted: Homo sapiens, MDA-MB-231, 48 h. The protocol:
(§1) Cytotoxicity assays were evaluated against the following cell lines: T-47D ATCC, HTB-133 (hormone-dependent breast cancer), and MRC-5 ATCC, CCL171 (normal embryonic lung) from the American Type Culture Collection (ATCC, Manassas, VA) as well as MDA-MB-231 ((hormone-independent breast cancer) from M.D. Anderson Cancer Center, Houston, TX). […] The cutoff concentration is 50 μg mL^–1. Cell viability was determined using the MTT assay. […] The selectivity index between the T47D cancer cell line and the MRC-5 normal cell line is 13.5. […] In addition, this compound was previously reported to be noncytotoxic to MCF-7 cancer cell line.[36] This means that the growth inhibitory effect of hericerin depends on the types of breast cancer cell. T47D, MDA-MB-231, and MCF-7 are popular models in breast cancer studies. The T47D and MCF-7 are hormone-dependent breast cancer cells, but MDA-MB-231 is a hormone-independent breast cancer cell. […] Thus, hericerin (13) may be a good candidate to develop an anticancer agent against progesterone-sensitive breast cancer cells. Moreover, hericerin was reported to inhibit the growth of A549, SK-OV-3, SK-MEL-2, HCT-15, and HL-60 cancer cell lines.[10],[38] […] First, T47D and MDA-MB-231 breast cancer cells were exposed to compound 13 for 48 h, and the abundance of two apoptotic markers, namely, PARP and procaspase 3, was determined by Western blot.

For data set [2], the target named is T1, xanthine oxidase (Bos taurus, UniProt P80457).
T1 construct: gene XDH
Kind of data set: biochemical. Further details: xanthine oxidase inhibition (IXO assay), dose-response, n = 3.
Description: The assays were evaluated against DPPH (diphenyl picrylhydracyl radical), XXO (reactive oxygen species generated by xanthine oxidase), and IXO (inhibition of xanthine oxidase). DMSO was used as a solvent and a negative control. […] The cutoff concentration is 100 μg mL^–1 for DPPH and 200 μg mL^–1 for XXO and IXO.

Data set [3] deals with T47D. In words: cells. More on the design: species or system MDA-MB-231, MRC-5; MTT cell viability, growth inhibition versus DMSO control, n = 4. The settings on record: Homo sapiens, 48 h. The protocol:
Cytotoxicity assays were evaluated against the following cell lines: T-47D ATCC, HTB-133 (hormone-dependent breast cancer), and MRC-5 ATCC, CCL171 (normal embryonic lung) from the American Type Culture Collection (ATCC, Manassas, VA) as well as MDA-MB-231 ((hormone-independent breast cancer) from M.D. Anderson Cancer Center, Houston, TX). […] The cutoff concentration is 50 μg mL^–1. Cell viability was determined using the MTT assay. […] The selectivity index between the T47D cancer cell line and the MRC-5 normal cell line is 13.5. […] In addition, this compound was previously reported to be noncytotoxic to MCF-7 cancer cell line.[36] This means that the growth inhibitory effect of hericerin depends on the types of breast cancer cell. T47D, MDA-MB-231, and MCF-7 are popular models in breast cancer studies. The T47D and MCF-7 are hormone-dependent breast cancer cells, but MDA-MB-231 is a hormone-independent breast cancer cell. […] Thus, hericerin (13) may be a good candidate to develop an anticancer agent against progesterone-sensitive breast cancer cells. Moreover, hericerin was reported to inhibit the growth of A549, SK-OV-3, SK-MEL-2, HCT-15, and HL-60 cancer cell lines.[10],[38] To determine the possible mechanism, we performed an apoptosis assay. First, T47D and MDA-MB-231 breast cancer cells were exposed to compound 13 for 48 h, and the abundance of two apoptotic markers, namely, PARP and procaspase 3, was determined by Western blot.

A short description of data set [4]: in vitro. Further details: species or system T47D, MDA-MB-231; MTT cell viability, growth inhibition versus DMSO control, n = 4. To be noted: human, mrc-5 cells; read-out: MRC-5 IC50. The method, then: as §1

Structures can show the parent of a compound that is named as a salt.

T1 sequence (P80457 2-1332): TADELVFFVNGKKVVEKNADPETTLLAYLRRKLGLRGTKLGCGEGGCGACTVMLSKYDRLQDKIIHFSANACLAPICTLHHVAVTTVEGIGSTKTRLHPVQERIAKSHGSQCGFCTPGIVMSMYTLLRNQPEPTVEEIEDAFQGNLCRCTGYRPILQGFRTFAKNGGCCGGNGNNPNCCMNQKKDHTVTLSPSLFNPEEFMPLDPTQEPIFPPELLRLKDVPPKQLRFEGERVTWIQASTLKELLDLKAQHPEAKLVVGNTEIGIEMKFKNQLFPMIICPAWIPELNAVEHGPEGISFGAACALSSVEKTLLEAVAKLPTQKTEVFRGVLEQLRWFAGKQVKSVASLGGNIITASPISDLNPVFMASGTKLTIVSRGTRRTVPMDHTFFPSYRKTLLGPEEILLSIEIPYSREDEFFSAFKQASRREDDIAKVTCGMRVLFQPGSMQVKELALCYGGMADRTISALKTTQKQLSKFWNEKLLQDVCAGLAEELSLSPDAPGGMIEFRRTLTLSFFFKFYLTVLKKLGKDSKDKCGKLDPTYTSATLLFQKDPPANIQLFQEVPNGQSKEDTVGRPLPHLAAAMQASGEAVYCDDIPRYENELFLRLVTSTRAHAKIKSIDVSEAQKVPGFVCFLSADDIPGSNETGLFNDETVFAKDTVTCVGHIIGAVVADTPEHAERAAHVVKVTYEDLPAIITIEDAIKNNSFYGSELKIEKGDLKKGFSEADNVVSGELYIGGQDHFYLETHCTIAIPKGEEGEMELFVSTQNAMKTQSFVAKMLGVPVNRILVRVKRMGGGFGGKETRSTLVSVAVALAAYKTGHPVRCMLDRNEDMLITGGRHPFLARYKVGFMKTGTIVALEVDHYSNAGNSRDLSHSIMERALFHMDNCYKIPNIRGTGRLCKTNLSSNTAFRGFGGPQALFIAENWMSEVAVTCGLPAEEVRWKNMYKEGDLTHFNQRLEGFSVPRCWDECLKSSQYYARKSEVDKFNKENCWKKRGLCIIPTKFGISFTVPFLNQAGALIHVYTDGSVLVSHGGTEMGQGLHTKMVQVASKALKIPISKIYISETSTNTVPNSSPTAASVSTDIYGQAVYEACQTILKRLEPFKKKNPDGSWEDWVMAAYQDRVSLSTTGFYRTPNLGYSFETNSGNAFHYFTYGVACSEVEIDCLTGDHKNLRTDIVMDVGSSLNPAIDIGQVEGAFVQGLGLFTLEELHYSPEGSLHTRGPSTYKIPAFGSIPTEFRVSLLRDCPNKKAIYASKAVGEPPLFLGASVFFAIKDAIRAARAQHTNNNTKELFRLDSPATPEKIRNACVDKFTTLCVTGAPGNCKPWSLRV

As to `COc1cc2c(c(O)c1C/C=C(\C)CCC=C(C)C)C(=O)N(CCc1ccccc1)C2` [compound 13, hericerin], the IC50 in data set [1] was 57.5 ± 5.4 µM; in data set [3], 5.9 ± 1.6 µM. In data set [2], the inhibition at 200 µg/mL amounted to 43.3 ± 5%. Besides, the CC50 at 48 h in data set [4] came out at 79.6 ± 13.7 µM.

On to `Nc1ncnc2c1ncn2[C@@H]1O[C@H](CO)[C@@H](O)[C@H]1O` [compound 6, adenosine], for which the inhibition at 50 µg/mL came out at 2.5 ± 5% in data set [1] and 2.3 ± 2.9% in data set [3]. In data set [2], this compound had an inhibition at 200 µg/mL of 27 ± 7.9%.

Consider `COc1cccc2c1C(=O)c1c(O)c3c(c(O)c1C2=O)C[C@@](O)(C(=O)CO)C[C@@H]3O[C@H]1C[C@H](N)[C@H](O)[C@H](C)O1` [Doxorubicin·HCl, Doxorubicin hydrochloride], for which the IC50 in data set [3] turned out to be 0.69 ± 0.03 µM. Also, in data set [4], the CC50 at 48 h was 2.75 ± 0.21 µM.

(Values after paper PMC10701869, “Anti-Xanthine Oxidase 5′-Hydroxyhericenes A–D from the Edible Mushroom Hericium erinaceus and Structure Revision of 3-[2,3-Dihydroxy-4-(hydroxymethyl)tetrahydrofuran-1-yl]-pyridine-4,5-diol” (ACS Omega, 2023).)
